# In patent US12144815B2, “Use of aprepitant for treating Alzheimer's disease” (Hoth Therapeutics, Inc., priority 2021, dated 2024):
# Tests used:
# APP/PS1 mice = assay: Morris Water Maze test of spatial learning and memory; format: in vivo; settings: 3 weeks oral treatment
# Procedure: A Morris Water Maze test was used to evaluate spatial learning and memory after 3 weeks treatment with oral aprepitant or vehicle in APP/PS1 or wild type (WT) mice.
# Animal Model. All experiment protocols using animals were performed ethically and in accordance with the guidelines established by the Institutional Animal Care and Use Committee at Washington University. APPswe/PS1DE9 hemizygous mice (Jackson Laboratory, RRID: MMRRC_034829.JAX) (Savonenko et al., 2003) were bred to wild type C3H/B6 mice and aged the APP/PS1^+/− offspring to 2-3.5 months for microdialysis experiments or aged to 9 months for behavioral testing. Males and females were included in each group; aprepitant treated mice n=20 (11 males, 9 females), Vehicle treated mice […] for microdialysis experiments. […]
# Morris water maze (MWM) test. […] The PVC escape platform measured 11.5 cm in diameter. A digital video camera connected to a PC computer and the computer software program ANY-maze (Stoelting Co., Wood Dale, IL) tracked the swimming pathway of the mouse to the escape platform and quantified path length, latency to find escape platform, and swimming speeds. […]
# [1] = system: brain interstitial fluid (ISF) Aβ; assay: In vivo microdialysis of brain interstitial fluid (ISF) Aβ with Aβ sandwich ELISA; settings: APP/PS1+/− mice, 40 mg/kg oral gavage
# Procedure: In vivo microdialysis was utilized to measure the basal concentration of ISF Aβ in each mouse, followed by administration via oral gavage of 40 mg/kg dose of aprepitant or vehicle (corn oil) and continued measurement of Aβ over 24 hours.
# Three-four month old APP/PS1^+/− mice were implanted with unilateral guide cannula above the hippocampus followed by insertion of microdialysis probes (see, for example, In Vivo AβMicrodialysis of Example 7). Each animal recovered for 3 days between guide cannula implantation and start of microdialysis. Littermate females and males were separated randomly into each treatment group. Throughout each microdialysis study, mice were housed in special RaTurn caging systems to provide freedom of movement and ad lib food and water while the microdialysis equipment was attached. […]
# Following drug administration, ISF was measured every 60 minutes for 24 hours. […] ISF APβ was immediately measured at the end of each study by Aβ sandwich ELISA. […]
# In Vivo Aβ Microdialysis. […] Samples were collected every 60 or 90 minutes into a refrigerated fraction collector (Univentor Limited) in polypropylene tubes and assessed for […] by sandwich ELISA. […]
# Aβ Sandwich ELISA. ISF Aβx-40 levels were measured using sandwich ELISAs as described (Hettinger et al., 2018). […]
compound,measurement,setting,value
C[C@H](O[C@@H]1OCCN(Cc2n[nH]c(=O)[nH]2)[C@H]1c1ccc(F)cc1)c1cc(C(F)(F)F)cc(C(F)(F)F)c1 [aprepitant],"spatial memory for the platform location (time spent in the target quadrant, probe trial)","APP/PS1 mice; compared to vehicle-treated APP/PS1 mice, preliminary data",trend for improved memory
same,"spatial learning (path length, learning trials)","APP/PS1 mice; n=4 vs vehicle n=3, preliminary data, trend",improved spatial learning
same,average ISF Aβ levels post gavage compared to vehicle treated mice,"[1]; Bonferroni post hoc, p=0.0002",significantly lower
same,"ISF Aβ levels, change from baseline (within group)","[1]; hippocampal ISF measured over 24 hours, p <0.0001, vehicle (corn oil) mice did not decrease (p=0.4003)",significantly decreased from their baseline
